In ChEMBL document CHEMBL1777719, “Norcantharidin analogues with nematocidal activity in Haemonchus contortus” (Bioorg Med Chem Lett, 2011):
Active and inactive are the calls of the source. No cut-off for these calls is given here.

Experiments:
[1] = tested on: Haemonchus contortus; test: Nematocidal activity against Haemonchus contortus Haecon 5 strain isolated from helminth-free Merino weaner sheep at 12.5 to 100 uM after 6 days by larval development assay; format: functional, organism-based
[2] = Cytotoxicity against human A431 cells after 72 hrs by MTT assay; format: cell-based, A-431
[3] = Cytotoxicity against human SW480 cells after 72 hrs by MTT assay; format: cell-based
[4] = Cytotoxicity against human BE(2)-C cells after 72 hrs by MTT assay; format: cell-based
[5] = Cytotoxicity against human DU145 cells after 72 hrs by MTT assay; format: cell-based, DU-145
[6] = Cytotoxicity against human A2780 cells after 72 hrs by MTT assay; format: cell-based
[7] = Cytotoxicity against human H460 cells after 72 hrs by MTT assay; format: cell-based; settings: NCI-H460 cells
[8] = Cytotoxicity against human HT-29 cells after 72 hrs by MTT assay; format: cell-based
[9] = Cytotoxicity against human MCF7 cells after 72 hrs by MTT assay; format: cell-based
[10] = Cytotoxicity against human SJ-G2 cells after 72 hrs by MTT assay; format: cell-based

Row | SMILES | inhibition [1] | GI50 at 72 h [2] [µM] | GI50 at 72 h [3] [µM] | GI50 at 72 h [4] [µM] | GI50 at 72 h [5] [µM] | GI50 at 72 h [6] [µM] | GI50 at 72 h [7] [µM] | GI50 at 72 h [8] [µM] | GI50 at 72 h [9] [µM] | GI50 at 72 h [10] [µM]
1 | CCCCCCCCN1C(=O)C2=C(C)[C@H]3C=C[C@@]2(O3)[C@H]1C(=O)NCC(=O)OCC | inactive |  |  |  |  |  |  |  |  | 
2 | CCOC(=O)c1cn[nH]c1NC(=O)C1C(C(=O)O)[C@@H]2CC[C@H]1O2 (stereo partly drawn) | inactive | 10 | 10 | 10 | 10 | 10 | 10 | 10 | 10 | 10
3 | COC(=O)CNC(=O)[C@@H]1N(CCCCCO)C(=O)C2=C(C)[C@H]3C=C[C@]21O3 | inactive |  |  |  |  |  |  |  |  | 
4 | CCCCCCCCCCNC(=O)C1C(C(=O)O)[C@@H]2CC[C@H]1O2 (stereo partly drawn) | inactive | 10 | 10 | 10 | 10 | 10 | 10 | 10 | 10 | 10
5 | O=C(O)[C@H](Cc1ccc(O)cc1)N1C(=O)[C@@H]2[C@H](C1=O)[C@H]1CC[C@@H]2O1 |  | > 75 | > 75 | > 75 | > 75 | > 75 | > 75 | > 75 | > 75 | > 75
6 | COC(=O)CNC(=O)[C@H]1N(CCCCCO)C(=O)C2=C(C)[C@H]3C=C[C@]21O3 | inactive |  |  |  |  |  |  |  |  | 
7 | O=C(O)C1C(C(=O)Nc2ccccc2)[C@H]2CC[C@@H]1O2 (stereo partly drawn) | inactive | 10 | 10 | 10 | 10 | 10 | 10 | 10 | 10 | 10
8 | CCCCCNC(=O)[C@@H]1N(Cc2ccccc2)C(=O)C2=C(C)[C@H]3C=C[C@]21O3 | inactive |  |  |  |  |  |  |  |  | 
9 | O=C(O)C1C(C(=O)NCc2ccc(Cl)cc2)[C@H]2CC[C@@H]1O2 (stereo partly drawn) | inactive | 10 | 10 | 10 | 10 | 10 | 10 | 10 | 10 | 10
10 | CCCCCCCCNC(=O)C1C(C(=O)O)[C@@H]2CC[C@H]1O2 (stereo partly drawn) | inactive | 10 | 10 | 10 | 10 | 10 | 10 | 10 | 10 | 10
11 | CCCCCCCCCCCCN1C(=O)[C@@H]2[C@H](C1=O)[C@H]1CC[C@@H]2O1 | inactive |  |  |  |  |  |  |  |  | 
12 | O=C1[C@@H]2[C@H](C(=O)N1CCOP(=O)(OCC(Cl)(Cl)Cl)OCC(Cl)(Cl)Cl)[C@H]1CC[C@@H]2O1 |  | > 75 | > 75 | > 75 | > 75 | > 75 | > 75 | > 75 | > 75 | > 75
13 | O=C1[C@@H]2[C@H](C(=O)N1c1ncccc1OCc1ccccc1)[C@H]1CC[C@@H]2O1 |  | > 75 | > 75 | > 75 | > 75 | > 75 | > 75 | > 75 | > 75 | > 75
14 | O=C(O)C1C(C(=O)NCCc2ccccc2)[C@H]2CC[C@@H]1O2 (stereo partly drawn) | inactive | 10 | 10 | 10 | 10 | 10 | 10 | 10 | 10 | 10
15 | CCCCCNC(=O)[C@H]1N(Cc2ccccc2)C(=O)C2=C(C)[C@H]3C=C[C@]21O3 | inactive |  |  |  |  |  |  |  |  | 
16 | O=C(O)c1ccc(NC(=O)C2C(C(=O)O)[C@@H]3CC[C@H]2O3)cc1Cl (stereo partly drawn) | inactive | 10 | 10 | 10 | 10 | 10 | 10 | 10 | 10 | 10
17 | O=C(O)CCCNC(=O)C1C(C(=O)O)[C@@H]2CC[C@H]1O2 (stereo partly drawn) | inactive | 10 | 10 | 10 | 10 | 10 | 10 | 10 | 10 | 10
